Our source for the mutagenic call values is PubChem BioAssay AID1259407 (Chemical Carcinogenesis Research Information System (CCRIS), 2018).

Calls of active or inactive are those of the source. No rule for the calls is given here.

The data set deals with CCRIS mutagenicity, Ames/micronucleus/aberration tests. Description: CCRIS mutagenicity studies.
Where [1] appears, read: Test System: AMES SALMONELLA TYPHIMURIUM, Strain/Indicator: TA98, Metabolic Activation: NONE, Method: PREINCUBATION
[2] abbreviates: Test System: AMES SALMONELLA TYPHIMURIUM, Strain/Indicator: TA100, Metabolic Activation: NONE, Method: PREINCUBATION

Take `CC(=O)Nc1ccc(Oc2ccc([N+](=O)[O-])cc2)cc1`: the mutagenic call is “inactive; negative” (Test System: AMES SALMONELLA TYPHIMURIUM, Strain/Indicator: TA98(1,8-DNP6), Metabolic Activation: NONE, Method: PREINCUBATION); “inactive; negative” (Test System: AMES SALMONELLA TYPHIMURIUM, Strain/Indicator: TA98(1,8-DNP6), Metabolic Activation: RAT, LIVER, S-9, AROCLOR 1254, Method: PREINCUBATION); “inactive; negative” (Test System: AMES SALMONELLA TYPHIMURIUM, Strain/Indicator: TA98(NR), Metabolic Activation: NONE, Method: PREINCUBATION); “inactive; negative” (Test System: AMES SALMONELLA TYPHIMURIUM, Strain/Indicator: TA98(NR), Metabolic Activation: RAT, LIVER, S-9, AROCLOR 1254, Method: PREINCUBATION); “active; positive” under setting [1]; “active; positive” (Test System: AMES SALMONELLA TYPHIMURIUM, Strain/Indicator: TA98, Metabolic Activation: RAT, LIVER, S-9, AROCLOR 1254, Method: PREINCUBATION). Also, the mutagenic call by setting is: (Test System: AMES SALMONELLA TYPHIMURIUM, Strain/Indicator: TA100(NR), Metabolic Activation: NONE, Method: PREINCUBATION) “inactive; negative”; (Test System: AMES SALMONELLA TYPHIMURIUM, Strain/Indicator: TA100(NR), Metabolic Activation: RAT, LIVER, S-9, AROCLOR 1254, Method: PREINCUBATION) “active; positive”; under setting [2], “active; positive”; (Test System: AMES SALMONELLA TYPHIMURIUM, Strain/Indicator: TA100, Metabolic Activation: RAT, LIVER, S-9, AROCLOR 1254, Method: PREINCUBATION) “active; positive”.

As for `Clc1nncc2ccccc12`, the mutagenic call is, setting by setting: under setting [1], “inactive; negative”; (Test System: AMES SALMONELLA TYPHIMURIUM, Strain/Indicator: TA98, Metabolic Activation: RAT, LIVER, S-9, PCB, Method: PREINCUBATION) “inactive; negative”; under setting [2], “inactive; negative”; (Test System: AMES SALMONELLA TYPHIMURIUM, Strain/Indicator: TA100, Metabolic Activation: RAT, LIVER, S-9, PCB, Method: PREINCUBATION) “inactive; negative”.

Take `NCCc1c[nH]c2ccc(O)cc12`: the mutagenic call under setting [2] is “inactive; negative”.

As to `C=CCBr`, the mutagenic call reads like this: (End Point: IN VITRO CHROMOSOMAL ABERRATIONS, Test System: CHL CELLS, Metabolic Activation: NONE) “active; positive (structural changes)”; (End Point: IN VITRO CHROMOSOMAL ABERRATIONS, Test System: CHL CELLS, Metabolic Activation: RAT, LIVER, S-9, SODIUM PHENOBARBITAL AND 5,6-BENZOFLAVONE) “inactive; negative; authors report equivocal results for structural changes at 0.06 mg/ml”; (End Point: In vivo micronucleus, Species: Mouse, Strain/Sex: C57BL/6/Male, Route: Oral) “inactive; negative”; (End Point: In vivo micronucleus, Test System: Peripheral blood normochromatic erythrocytes, Species: Mouse, Strain/Sex: C57BL/6/Female, Route: Oral) “inactive; negative”; (End Point: In vivo micronucleus, Test System: Peripheral blood normochromatic erythrocytes, Species: Mouse, Strain/Sex: FVB/N/Female, Route: Oral) “inactive; negative”; (End Point: In vivo micronucleus, Test System: Peripheral blood normochromatic erythrocytes, Species: Mouse, Strain/Sex: FVB/N/Male, Route: Oral) “inactive; negative”. In addition, the mutagenic call (End Point: In vivo micronucleus, Test System: Peripheral blood normochromatic erythrocytes, Species: Mouse, Strain/Sex: P53 Haploinsufficient/Female, Route: Oral) was “inactive; negative”; the mutagenic call (End Point: In vivo micronucleus, Test System: Peripheral blood normochromatic erythrocytes, Species: Mouse, Strain/Sex: P53 Haploinsufficient/Male, Route: Oral) was “inactive; negative”; the mutagenic call (End Point: In vivo micronucleus, Test System: Peripheral blood normochromatic erythrocytes, Species: Mouse, Strain/Sex: Tg.AC Hemizygous/Female, Route: Oral) is “inactive; negative”; the mutagenic call (End Point: In vivo micronucleus, Test System: Peripheral blood normochromatic erythrocytes, Species: Mouse, Strain/Sex: Tg.AC Hemizygous/Male, Route: Oral) is “inactive; negative”; the mutagenic call (Test System: Ames Salmonella typhimurium, Strain/Indicator: TA98, Metabolic Activation: Hamster, Liver, S-9, Aroclor 1254 (30%), Method: Standard plate) was “inactive; negative”; the mutagenic call (Test System: Ames Salmonella typhimurium, Strain/Indicator: TA98, Metabolic Activation: None, Method: Standard plate) was “inactive; negative”. Moreover, the mutagenic call was “inactive; negative” (Test System: Ames Salmonella typhimurium, Strain/Indicator: TA98, Metabolic Activation: Rat, Liver, S-9, Aroclor 1254 (30%), Method: Standard plate); “active; positive (weak response)” (Test System: Ames Salmonella typhimurium, Strain/Indicator: TA100, Metabolic Activation: Hamster, Liver, S-9, Aroclor 1254 (30%), Method: Standard plate); “active; positive” (Test System: Ames Salmonella typhimurium, Strain/Indicator: TA100, Metabolic Activation: None, Method: Standard plate); “active; positive” (Test System: Ames Salmonella typhimurium, Strain/Indicator: TA100, Metabolic Activation: Rat, Liver, S-9, Aroclor 1254 (30%), Method: Standard plate).

Take `OCc1ccc2nc3c(ccc4ccccc43)c(CO)c2c1`: the mutagenic call (Test System: AMES SALMONELLA TYPHIMURIUM, Strain/Indicator: TA100, Metabolic Activation: RAT, LIVER, S-9, AROCLOR 1254, Method: STANDARD PLATE) was “active; positive”.

Regarding `NC(=O)N(CCCO)N=O`, the mutagenic call runs as follows: (Test System: E. COLI B, Strain/Indicator: H/R30R, Metabolic Activation: NONE) “active; positive”; (Test System: E. COLI B, Strain/Indicator: HS30R, Metabolic Activation: NONE) “active; positive”.

Consider `CCC(C(N)=O)(C(N)=O)c1ccccc1`, for which the mutagenic call was “inactive; negative” (Test System: AMES SALMONELLA TYPHIMURIUM, Strain/Indicator: TA97, Metabolic Activation: HAMSTER, LIVER, S-9, AROCLOR 1254 (10 OR 30%), Method: PREINCUBATION); “inactive; negative” (Test System: AMES SALMONELLA TYPHIMURIUM, Strain/Indicator: TA97, Metabolic Activation: NONE, Method: PREINCUBATION); “inactive; negative” (Test System: AMES SALMONELLA TYPHIMURIUM, Strain/Indicator: TA97, Metabolic Activation: RAT, LIVER, S-9, AROCLOR 1254 (10 OR 30%), Method: PREINCUBATION); “inactive; negative” (Test System: AMES SALMONELLA TYPHIMURIUM, Strain/Indicator: TA98, Metabolic Activation: HAMSTER, LIVER, S-9, AROCLOR 1254 (10 OR 30%), Method: PREINCUBATION); “inactive; negative” under setting [1]; “inactive; negative” (Test System: AMES SALMONELLA TYPHIMURIUM, Strain/Indicator: TA98, Metabolic Activation: RAT, LIVER, S-9, AROCLOR 1254 (10 OR 30%), Method: PREINCUBATION). Further, the mutagenic call (Test System: AMES SALMONELLA TYPHIMURIUM, Strain/Indicator: TA100, Metabolic Activation: HAMSTER, LIVER, S-9, AROCLOR 1254 (10 OR 30%), Method: PREINCUBATION) was “inactive; negative”; the mutagenic call under setting [2] is “inactive; negative”; the mutagenic call (Test System: AMES SALMONELLA TYPHIMURIUM, Strain/Indicator: TA100, Metabolic Activation: RAT, LIVER, S-9, AROCLOR 1254 (10 OR 30%), Method: PREINCUBATION) is “inactive; negative”; the mutagenic call (Test System: AMES SALMONELLA TYPHIMURIUM, Strain/Indicator: TA1535, Metabolic Activation: HAMSTER, LIVER, S-9, AROCLOR 1254 (10 OR 30%), Method: PREINCUBATION) was “inactive; negative”; the mutagenic call (Test System: AMES SALMONELLA TYPHIMURIUM, Strain/Indicator: TA1535, Metabolic Activation: NONE, Method: PREINCUBATION) is “inactive; negative”; the mutagenic call (Test System: AMES SALMONELLA TYPHIMURIUM, Strain/Indicator: TA1535, Metabolic Activation: RAT, LIVER, S-9, AROCLOR 1254 (10 OR 30%), Method: PREINCUBATION) was “inactive; negative”.

Take `CCCSP(=O)(OCC)Oc1ccc(Br)cc1Cl` (centres undefined): the mutagenic call reads like this: (End Point: In vitro chromosomal aberrations, Test System: Human peripheral lymphocytes, Metabolic Activation: None) “active; positive (structural changes)”; (End Point: In vivo chromosomal aberrations, Test System: Bone marrow cells, Species: Mouse, Strain/Sex: Swiss/Male, Route: Oral) “active; positive (structural changes and ploidy)”.

Take `O=C1c2ccccc2C(=O)N1CCCN1c2ccccc2Sc2ccc(Cl)cc21`: the mutagenic call (Test System: AMES SALMONELLA TYPHIMURIUM, Strain/Indicator: TA98, Metabolic Activation: NONE, Method: SPOT TEST) was “inactive; negative”.

`Cc1ccc(C(C)C)cc1O`: the mutagenic call (Test System: AMES SALMONELLA TYPHIMURIUM, Strain/Indicator: TA98, Metabolic Activation: NONE, Method: STANDARD PLATE) is “inactive; negative”; the mutagenic call (Test System: AMES SALMONELLA TYPHIMURIUM, Strain/Indicator: TA98, Metabolic Activation: S-9, Method: STANDARD PLATE) was “inactive; negative”; the mutagenic call (Test System: AMES SALMONELLA TYPHIMURIUM, Strain/Indicator: TA100, Metabolic Activation: NONE, Method: STANDARD PLATE) was “inactive; negative”; the mutagenic call (Test System: AMES SALMONELLA TYPHIMURIUM, Strain/Indicator: TA100, Metabolic Activation: S-9, Method: STANDARD PLATE) was “inactive; negative”.

Take `CSCCCCN=C=S`: where the note is “End Point: IN VITRO MICRONUCLEUS, Test System: HUMAN T-LYMPHOCYTES, Metabolic Activation: NONE”, the mutagenic call was “inactive; negative”.
